Laboratory results as given in ChEMBL document CHEMBL5154794, “Design, synthesis and biological evaluation of protease inhibitors containing morpholine cores with remarkable potency against both HIV-1 subtypes B and C” (Eur J Med Chem, 2022).

How the values were obtained:
[1] = Cytotoxicity against human HEK-293T cells after 24 hrs by CCK-8 assay; type: toxicity, cell-based
[2] = system: Human immunodeficiency virus 1; experiment: Antiviral activity against wild type HIV1 NL4-3; type: functional, organism-based; conditions: Human immunodeficiency virus 1, NL4-3
[3] = system: Human immunodeficiency virus 1; experiment: Antiviral activity against DRV resistant HIV1; type: functional, organism-based
[4] = system: Human immunodeficiency virus 1; experiment: Antiviral activity against HIV1 subtype C isolate ZM246; type: functional, organism-based; conditions: Human immunodeficiency virus 1, subtype C isolate ZM246
[5] = system: Human immunodeficiency virus 1; experiment: Antiviral activity against HIV1 subtype C isolate Indie; type: functional, organism-based; conditions: Human immunodeficiency virus 1, subtype C isolate Indie
[6] = system: Human immunodeficiency virus 1; experiment: Antiviral activity against HIV1 NL4-3 Env-deficient VSV-G pseudotyped virus infected in human SUP-T1 cells assessed as inhibition of late stage viral production at 100 nM measured after 48 hrs by luciferase assay relative to control; type: functional; conditions: Human immunodeficiency virus 1, NL4-3, SUP-T1
[7] = biological target: Human immunodeficiency virus type 1 protease (Human immunodeficiency virus 1, UniProt Q72874); experiment: Inhibition of HIV-1 protease using Arg-Glu (EDANS)-Ser-Gln-Asn-Tyr-Pro-lle-Val-Gln-Lys (DABCYL)-Arg as substrate preincubated for 20 to 30 mins followed by substrate addition and measured by FRET assay
HIV-1 protease = experiment: Selectivity index, ratio IC50 for cytotoxicity against human HEK-293T cells over IC50 for inhibition of HIV-1 protease; type: toxicity, cell-based; conditions: read-out: Ratio CC50/IC50
[8] = Selectivity index, ratio EC50 for Antiviral activity against DRV resistant HIV1 over EC50 for wild type HIV1 NL4-3
[9] = system: Human immunodeficiency virus 1; experiment: Antiviral activity against HIV1 NL4-3 Env-deficient VSV-G pseudotyped virus infected in human SUP-T1 cells assessed as inhibition of late stage viral production at 10 uM measured after 48 hrs by luciferase assay relative to control; type: functional; conditions: Human immunodeficiency virus 1, NL4-3, SUP-T1

Q: Which results are given for `CC(C)CN(C[C@@H](O)[C@H](Cc1ccccc1)NC(=O)O[C@H]1CO[C@H]2OCC[C@H]21)S(=O)(=O)c1ccc(N)cc1`?
A: CC50 at 24 h [1]: > 200 µM; EC50 [2]: 1.9 nM; EC50 [3]: 110 nM; EC50 [4]: 2.01 nM; EC50 [5]: 1.26 nM; inhibition at 0.1 µM [6]: 100%

Q: What does the source list for `CC(C)CN(C[C@@H](O)[C@H](Cc1ccccc1)NC(=O)OC[C@H]1CNCCO1)S(=O)(=O)c1ccc(O)cc1`?
A: IC50 [7]: 1.9 nM; CC50 at 24 h [1]: > 200 µM; selectivity ratio (HIV-1 protease): > 105000

Q: Which IC50 [7] does the source give for `CNc1ccc(S(=O)(=O)N(CC(C)C)C[C@@H](O)[C@H](Cc2ccccc2)NC(=O)[C@H]2CNCCO2)cc1` here?
A: 90.2 nM

Q: And the CC50 at 24 h [1]?
A: > 200 µM

Q: What about the selectivity ratio (HIV-1 protease) of the same molecule?
A: > 2220

Q: With `CC(C)CN(C[C@@H](O)[C@H](Cc1ccccc1)NC(=O)OC[C@H]1CN(C)CCO1)S(=O)(=O)c1ccc(NO)cc1` as the molecule, how does the IC50 [7] read?
A: 13.9 nM

Q: And the CC50 at 24 h [1]?
A: > 200 µM

Q: And the selectivity ratio (HIV-1 protease)?
A: > 14400

Q: Which IC50 [7] does the source give for `CC(C)CN(C[C@@H](O)[C@H](Cc1ccccc1)NC(=O)[C@@H]1COCCN1)S(=O)(=O)c1ccc(N)cc1` here?
A: 31.3 nM

Q: What about the CC50 at 24 h [1] of the same molecule?
A: > 200 µM

Q: What about the selectivity ratio (HIV-1 protease) of the same molecule?
A: > 6390

Q: What does the source list for `COc1ccc(S(=O)(=O)N(CC(C)C)C[C@@H](O)[C@H](Cc2ccccc2)NC(=O)[C@@H]2COCCN2)cc1`?
A: Ratio EC50 [8]: 9; IC50 [7]: 0.39 nM; CC50 at 24 h [1]: > 200 µM; selectivity ratio (HIV-1 protease): > 513000; inhibition at 10 µM [9]: 100%; EC50 [2]: 340 nM; EC50 [3]: 3190 nM

Q: For `CC(C)CN(C[C@@H](O)[C@H](Cc1ccccc1)NC(=O)[C@@H]1COCCN1)S(=O)(=O)c1ccc(O)cc1`, which “Ratio EC50” value [8] is on record?
A: 14

Q: What about the IC50 [7] of the same molecule?
A: 0.09 nM

Q: What about the CC50 at 24 h [1] of the same molecule?
A: > 200 µM

Q: And the selectivity ratio (HIV-1 protease)?
A: > 2.22e+06

Q: What about the inhibition at 10 µM [9] of the same molecule?
A: 100%

Q: And the EC50 [2]?
A: 89 nM

Q: And the EC50 [3]?
A: 1290 nM

Q: And the EC50 [4]?
A: 13.6 nM

Q: What about the EC50 [5] of the same molecule?
A: 8.23 nM

Q: For `CC(C)CN(C[C@@H](O)[C@H](Cc1ccccc1)NC(=O)[C@@H]1COCCN1C)S(=O)(=O)c1ccc(O)cc1`, which “Ratio EC50” value [8] is on record?
A: 13

Q: And the IC50 [7]?
A: 1.2 nM

Q: What about the CC50 at 24 h [1] of the same molecule?
A: 135 µM

Q: What about the selectivity ratio (HIV-1 protease) of the same molecule?
A: 113000

Q: And the inhibition at 10 µM [9]?
A: 100%

Q: What about the EC50 [2] of the same molecule?
A: 170 nM

Q: And the EC50 [3]?
A: 2200 nM

Q: What does the source list for `COc1ccc(S(=O)(=O)N(CC(C)C)C[C@@H](O)[C@H](Cc2ccccc2)NC(=O)OC[C@H]2CN(C)CCO2)cc1`?
A: IC50 [7]: 2.25 nM; CC50 at 24 h [1]: > 200 µM; selectivity ratio (HIV-1 protease): > 88900; inhibition at 10 µM [9]: 100%

Q: Which results are given for `CC(C)CN(C[C@@H](O)[C@H](Cc1ccccc1)NC(=O)OC[C@H]1CN(C)CCO1)S(=O)(=O)c1ccc(O)cc1`?
A: IC50 [7]: 1.54 nM; CC50 at 24 h [1]: > 200 µM; selectivity ratio (HIV-1 protease): > 130000

Q: What does the source list for `CC(C)CN(C[C@@H](O)[C@H](Cc1ccccc1)NC(=O)OC[C@H]1CNCCO1)S(=O)(=O)c1ccc(NO)cc1`?
A: IC50 [7]: 2.45 nM; CC50 at 24 h [1]: > 200 µM; selectivity ratio (HIV-1 protease): > 81600

Q: With `CC(C)CN(C[C@@H](O)[C@H](Cc1ccccc1)NC(=O)[C@@H]1COCCN1)S(=O)(=O)c1ccc(NO)cc1` as the molecule, how does the IC50 [7] read?
A: 2.99 nM

Q: And the CC50 at 24 h [1]?
A: 145 µM

Q: And the selectivity ratio (HIV-1 protease)?
A: 48400

Q: What about the inhibition at 10 µM [9] of the same molecule?
A: 93%

Q: Which IC50 [7] does the source give for `COc1ccc(S(=O)(=O)N(CC(C)C)C[C@@H](O)[C@H](Cc2ccccc2)NC(=O)OC[C@H]2CNCCO2)cc1` here?
A: 0.67 nM

Q: And the CC50 at 24 h [1]?
A: > 200 µM

Q: What about the selectivity ratio (HIV-1 protease) of the same molecule?
A: > 299000

Q: What about the inhibition at 10 µM [9] of the same molecule?
A: 100%

Q: With `CC(C)CN(C[C@@H](O)[C@H](Cc1ccccc1)NS(=O)(=O)N1CCOCC1)S(=O)(=O)c1ccc(N)cc1` as the molecule, how does the IC50 [7] read?
A: 35.2 nM

Q: What about the CC50 at 24 h [1] of the same molecule?
A: 101 µM

Q: What about the selectivity ratio (HIV-1 protease) of the same molecule?
A: 2860

Q: With `CC(C)CN(C[C@@H](O)[C@H](Cc1ccccc1)NC(=O)CN1CCS(=O)(=O)CC1)S(=O)(=O)c1ccc(NO)cc1` as the molecule, how does the IC50 [7] read?
A: 47.4 nM

Q: And the CC50 at 24 h [1]?
A: > 200 µM

Q: What about the selectivity ratio (HIV-1 protease) of the same molecule?
A: > 4220

Q: With `CC(C)CN(C[C@@H](O)[C@H](Cc1ccccc1)NC(=O)[C@H]1CNCCO1)S(=O)(=O)c1ccc(O)cc1` as the molecule, how does the IC50 [7] read?
A: 5.65 nM

Q: What about the CC50 at 24 h [1] of the same molecule?
A: > 200 µM

Q: And the selectivity ratio (HIV-1 protease)?
A: > 35400

Q: For `COc1ccc(S(=O)(=O)N(CC(C)C)C[C@@H](O)[C@H](Cc2ccccc2)NC(=O)[C@@H]2COCCN2C)cc1`, which “Ratio EC50” value [8] is on record?
A: 6

Q: And the IC50 [7]?
A: 4.83 nM

Q: What about the CC50 at 24 h [1] of the same molecule?
A: 132 µM

Q: And the selectivity ratio (HIV-1 protease)?
A: 27300

Q: What about the inhibition at 10 µM [9] of the same molecule?
A: 100%

Q: What about the EC50 [2] of the same molecule?
A: 350 nM

Q: And the EC50 [3]?
A: 1990 nM

Q: For `COc1ccc(S(=O)(=O)N(CC(C)C)C[C@@H](O)[C@H](Cc2ccccc2)NC(=O)CN2CCS(=O)(=O)CC2)cc1`, which IC50 [7] is on record?
A: 24.3 nM

Q: And the CC50 at 24 h [1]?
A: > 200 µM

Q: And the selectivity ratio (HIV-1 protease)?
A: > 8230

Q: Which IC50 [7] does the source give for `COc1ccc(S(=O)(=O)N(CC(C)C)C[C@@H](O)[C@H](Cc2ccccc2)NC(=O)[C@H]2CNCCO2)cc1` here?
A: 11.7 nM

Q: What about the CC50 at 24 h [1] of the same molecule?
A: > 200 µM

Q: What about the selectivity ratio (HIV-1 protease) of the same molecule?
A: > 17200

Q: With `CNc1ccc(S(=O)(=O)N(CC(C)C)C[C@@H](O)[C@H](Cc2ccccc2)NC(=O)[C@@H]2COCCN2)cc1` as the molecule, how does the IC50 [7] read?
A: 95.8 nM

Q: What about the CC50 at 24 h [1] of the same molecule?
A: > 200 µM

Q: And the selectivity ratio (HIV-1 protease)?
A: > 2090

Q: Which results are given for `CC(C)CN(C[C@@H](O)[C@H](Cc1ccccc1)NC(=O)[C@H]1CNCCO1)S(=O)(=O)c1ccc(N)cc1`?
A: IC50 [7]: 54.3 nM; CC50 at 24 h [1]: > 200 µM; selectivity ratio (HIV-1 protease): > 3680

Q: Which IC50 [7] does the source give for `CC(C)CN(C[C@@H](O)[C@H](Cc1ccccc1)NC(=O)[C@@H]1COCCN1)S(=O)(=O)c1ccc(S(C)(=O)=O)cc1` here?
A: 454 nM

Q: What about the CC50 at 24 h [1] of the same molecule?
A: > 200 µM

Q: What about the selectivity ratio (HIV-1 protease) of the same molecule?
A: > 440

Q: With `CC(C)CN(C[C@@H](O)[C@H](Cc1ccccc1)NC(=O)[C@@H]1COCCN1C)S(=O)(=O)c1ccc(NO)cc1` as the molecule, how does the IC50 [7] read?
A: 26.7 nM

Q: What about the CC50 at 24 h [1] of the same molecule?
A: 94.6 µM

Q: What about the selectivity ratio (HIV-1 protease) of the same molecule?
A: 3550

Q: And the inhibition at 10 µM [9]?
A: 78%

Q: For `COc1ccc(S(=O)(=O)N(CC(C)C)C[C@@H](O)[C@H](Cc2ccccc2)NS(=O)(=O)N2CCOCC2)cc1`, which IC50 [7] is on record?
A: 19.2 nM

Q: What about the CC50 at 24 h [1] of the same molecule?
A: 60.3 µM

Q: What about the selectivity ratio (HIV-1 protease) of the same molecule?
A: 3140

Q: For `CC(C)CN(C[C@@H](O)[C@H](Cc1ccccc1)NC(=O)[C@H]1CNCCO1)S(=O)(=O)c1ccc(NO)cc1`, which IC50 [7] is on record?
A: 34 nM

Q: What about the CC50 at 24 h [1] of the same molecule?
A: 11.2 µM

Q: What about the selectivity ratio (HIV-1 protease) of the same molecule?
A: 328

Q: Which results are given for `CC(C)CN(C[C@@H](O)[C@H](Cc1ccccc1)NC(=O)OC[C@H]1CNCCO1)S(=O)(=O)c1ccc(N)cc1`?
A: IC50 [7]: 19.7 nM; CC50 at 24 h [1]: 200 µM; selectivity ratio (HIV-1 protease): > 10100

Q: Which IC50 [7] does the source give for `CC(C)CN(C[C@@H](O)[C@H](Cc1ccccc1)NC(=O)CN1CCS(=O)(=O)CC1)S(=O)(=O)c1ccc(O)cc1` here?
A: 10.6 nM

Q: What about the CC50 at 24 h [1] of the same molecule?
A: > 200 µM

Q: What about the selectivity ratio (HIV-1 protease) of the same molecule?
A: > 18800
